Literature values in US20130108552A1, “NEAR-IR INDOCYANINE GREEN DOPED MULTIMODAL SILICA NANOPARTICLES AND METHODS FOR MAKING THE SAME” (UNIVERSITY OF FLORIDA RESEARCH FOUNDATION INC., priority 2010, published 2013).

Key:
[1] = system: nonspecific plasma proteins
[2] = in H2O

critical micelle concentration [2]: about 0.32 mg/mL
SMILES: CC1(C)C(/C=C/C=C/C=C/C=C2\N(CCCCS(=O)(=O)O)c3ccc4ccccc4c3C2(C)C)=[N+](CCCCS(=O)(=O)[O-])c2ccc3ccccc3c21 [ICG, indocyanine green]
binding to nonspecific plasma proteins [1]: strongly bind to nonspecific plasma proteins
